Measured values as given in patent US9458153B2, “Dihydroquinolizinones for the treatment and prophylaxis of hepatitis B virus infection” (Hoffmann-La Roche Inc., priority 2014, dated 2016).

The compounds below were run on HBsAg (assay: HBsAg assay (chemiluminescence immunoassay of secreted HBsAg in HepG2.2.15 culture supernatant)). Conditions: HBsAg secretion reduced by 50% vs no drug control; HepG2.2.15 cells; CLIA kit.
Assay type: cell-based, HBV
Method in brief: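 HepG2.2.15 cells, which constitutively express HBV, were seeded in duplicate and treated with three-fold serial compound dilutions at 1% DMSO final. Secreted HBsAg in culture supernatant was measured semi-quantitatively by chemiluminescence immunoassay. IC50 was extrapolated from dose-response curves.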

Structure (SMILES)	IC50 [nM]
COc1cc2c(cc1OC)-c1cc(=O)c(C(=O)O)cn1C(C)C2 (stereo not shown) [Example 66, 9,10-dimethoxy-6-methyl-2-oxo-6,7-dihydrobenzo[a]quinolizine-3-carboxylic acid]	430
CCC1Cc2cc(OC)c(C3CC3)cc2-c2cc(=O)c(C(=O)O)cn21 (stereo not shown) [Example 89, 10-cyclopropyl-6-ethyl-9-methoxy-2-oxo-6,7-dihydrobenzo[a]quinolizine-3-carboxylic acid]	8
COc1cc2c(cc1OC)-c1cc(=O)c(C(=O)O)cn1C(C(C)C)C2 (stereo not shown) [Example 98, 6-isopropyl-9,10-dimethoxy-2-oxo-6,7-dihydrobenzo[a]quinolizine-3-carboxylic acid]	16
COc1cc2c(cc1OC)-c1cc(=O)c(C(=O)O)cn1C(CC(C)C)C2 (stereo not shown) [Example 101, 6-isobutyl-9,10-dimethoxy-2-oxo-6,7-dihydrobenzo[a]quinolizine-3-carboxylic acid]	45
COCCOc1cc2c(cc1Cl)-c1cc(=O)c(C(=O)O)cn1C(CC(C)C)C2 (stereo not shown) [Example 104, 10-chloro-6-isobutyl-9-(2-methoxyethoxy)-2-oxo-6,7-dihydrobenzo[a]quinolizine-3-carboxylic acid]	18
COCCOc1cc2c(cc1Cl)-c1cc(=O)c(C(=O)O)cn1C(C(C)C)C2 (stereo not shown) [Example 107, 10-chloro-6-isopropyl-9-(2-methoxyethoxy)-2-oxo-6,7-dihydrobenzo[a]quinolizine-3-carboxylic acid]	12
CCC1Cc2cc(OCc3ccccc3)c(C)cc2-c2cc(=O)c(C(=O)O)cn21 (stereo not shown) [Example 115, 9-benzyloxy-6-ethyl-10-methyl-2-oxo-6,7-dihydrobenzo[a]quinolizine-3-carboxylic acid]	29
COCCCOc1cc2c(cc1Cl)-c1cc(=O)c(C(=O)O)cn1C(C(C)C)C2 (stereo not shown) [Example 120, 10-chloro-6-isopropyl-9-(3-methoxypropoxy)-2-oxo-6,7-dihydrobenzo[a]quinolizine-3-carboxylic acid]	2
COc1cc2c(cc1OCC(F)(F)F)CC(C(C)C)n1cc(C(=O)O)c(=O)cc1-2 (stereo not shown) [Example 126, 6-isopropyl-10-methoxy-2-oxo-9-(2,2,2-trifluoroethoxy)-6,7-dihydrobenzo[a]quinolizine-3-carboxylic acid]	8
COCCCOc1cc2c(cc1OC)-c1cc(=O)c(C(=O)O)cn1C(C(C)(C)C)C2 (stereo not shown) [Example 131, 6-tert-butyl-10-methoxy-9-(3-methoxypropoxy)-2-oxo-6,7-dihydrobenzo[a]quinolizine-3-carboxylic acid]	1
COCCOc1cc2c(cc1OC)-c1cc(=O)c(C(=O)O)cn1C(C1(C)CC1)C2 (stereo not shown) [Example 134, 10-methoxy-9-(2-methoxyethoxy)-6-(1-methylcyclopropyl)-2-oxo-6,7-dihydrobenzo[a]quinolizine-3-carboxylic acid]	7
COCCCOc1cc2c(c(Cl)c1F)-c1cc(=O)c(C(=O)O)cn1C(C(C)C)C2 (stereo not shown) [Example 137, 11-chloro-10-fluoro-6-isopropyl-9-(3-methoxypropoxy)-2-oxo-6,7-dihydrobenzo[a]quinolizine-3-carboxylic acid]	15
COc1cc2c(cc1OCC(C)(C)CO)CC(C(C)C)n1cc(C(=O)O)c(=O)cc1-2 (stereo not shown) [Example 144, 9-(3-hydroxy-2,2-dimethyl-propoxy)-6-isopropyl-10-methoxy-2-oxo-6,7-dihydrobenzo[a]quinolizine-3-carboxylic acid]	26

Same assay, conditions: Hepatitis B virus, HepG2.2.15, HBsAg secretion reduced by 50% vs no drug control; HepG2.2.15 cells; CLIA kit

Structure (SMILES)	IC50 [nM]
COc1cc2c(cc1Cl)-c1cc(=O)c(C(=O)O)cn1C(C)C2 (stereo not shown) [Example 65, 10-chloro-9-methoxy-6-methyl-2-oxo-6,7-dihydrobenzo[a]quinolizine-3-carboxylic acid]	320
COc1cc2c(cc1OC)C(C)Cn1cc(C(=O)O)c(=O)cc1-2 (stereo not shown) [Example 69, 9,10-dimethoxy-7-methyl-2-oxo-6,7-dihydrobenzo[a]quinolizine-3-carboxylic acid]	1300
CCC1Cc2cc(OC)c(OC)cc2-c2cc(=O)c(C(=O)O)cn21 (stereo not shown) [Example 70, 6-ethyl-9,10-dimethoxy-2-oxo-6,7-dihydrobenzo[a]quinolizine-3-carboxylic acid]	70
CC[C@@H]1Cc2cc(OC)c(OC)cc2-c2cc(=O)c(C(=O)O)cn21 [Example 71, (6R)-(+)-6-ethyl-9,10-dimethoxy-2-oxo-6,7-dihydrobenzo[a]quinolizine-3-carboxylic acid]	37
CC[C@H]1Cc2cc(OC)c(OC)cc2-c2cc(=O)c(C(=O)O)cn21 [Example 72, (6S)-(−)-6-ethyl-9,10-dimethoxy-2-oxo-6,7-dihydrobenzo[a]quinolizine-3-carboxylic acid]	12000
COc1cc2c(cc1C)-c1cc(=O)c(C(=O)O)cn1C(C)C2 (stereo not shown) [Example 73, 9-methoxy-6,10-dimethyl-2-oxo-6,7-dihydrobenzo[a]quinolizine-3-carboxylic acid]	140
CCOc1cc2c(cc1OCC)-c1cc(=O)c(C(=O)O)cn1C(C)C2 (stereo not shown) [Example 74, 9,10-diethoxy-6-methyl-2-oxo-6,7-dihydrobenzo[a]quinolizine-3-carboxylic acid]	140
CCOc1cc2c(cc1O)-c1cc(=O)c(C(=O)O)cn1C(C)C2 (stereo not shown) [Example 75, 9-ethoxy-6-methyl-10-hydroxy-2-oxo-6,7-dihydrobenzo[a]quinolizine-3-carboxylic acid]	1110
CCCOc1cc2c(cc1OCCC)-c1cc(=O)c(C(=O)O)cn1CC2 [Example 77, 2-oxo-9,10-dipropoxy-6,7-dihydrobenzo[a]quinolizine-3-carboxylic acid]	830
CCCc1cc2c(cc1OC)-c1cc(=O)c(C(=O)O)cn1C(CC)C2 (stereo not shown) [Example 81, 6-ethyl-10-methoxy-2-oxo-9-propyl-6,7-dihydrobenzo[a]quinolizine-3-carboxylic acid]	330
COc1ccc2c(c1Cl)CC(C)n1cc(C(=O)O)c(=O)cc1-2 (stereo not shown) [Example 82, 8-chloro-9-methoxy-6-methyl-2-oxo-6,7-dihydrobenzo[a]quinolizine-3-carboxylic acid]	5270
COc1cc2c(c(Cl)c1OC)CC(C)n1cc(C(=O)O)c(=O)cc1-2 (stereo not shown) [Example 83, 8-chloro-9,10-dimethoxy-6-methyl-2-oxo-6,7-dihydrobenzo[a]quinolizine-3-carboxylic acid]	5600
CCCOc1cc2c(cc1OC)CC(C)n1cc(C(=O)O)c(=O)cc1-2 (stereo not shown) [Example 87, 9-methoxy-6-methyl-2-oxo-10-propoxy-6,7-dihydrobenzo[a]quinolizine-3-carboxylic acid]	1550
CCc1cc2c(cc1OC)CC(CC)n1cc(C(=O)O)c(=O)cc1-2 (stereo not shown) [Example 88, 6,10-diethyl-9-methoxy-2-oxo-6,7-dihydrobenzo[a]quinolizine-3-carboxylic acid]	20
CCC1Cc2cc(Br)c(OC)cc2-c2cc(=O)c(C(=O)O)cn21 (stereo not shown) [Example 92, 9-bromo-6-ethyl-10-methoxy-2-oxo-6,7-dihydrobenzo[a]quinolizine-3-carboxylic acid]	230
CCC1Cc2cc(C#N)c(OC)cc2-c2cc(=O)c(C(=O)O)cn21 (stereo not shown) [Example 93, 9-cyano-6-ethyl-10-methoxy-2-oxo-6,7-dihydrobenzo[a]quinolizine-3-carboxylic acid]	190
CCOc1ccc(Br)c2c1-c1cc(=O)c(C(=O)O)cn1C(CC)C2 (stereo not shown) [Example 94, 8-bromo-11-ethoxy-6-ethyl-2-oxo-6,7-dihydrobenzo[a]quinolizine-3-carboxylic acid]	410
CCOc1ccc(C#N)c2c1-c1cc(=O)c(C(=O)O)cn1C(CC)C2 (stereo not shown) [Example 95, 8-cyano-11-ethoxy-6-ethyl-2-oxo-6,7-dihydrobenzo[a]quinolizine-3-carboxylic acid]	7830
CCCC1Cc2cc(OC)c(OC)cc2-c2cc(=O)c(C(=O)O)cn21 (stereo not shown) [Example 96, 9,10-dimethoxy-2-oxo-6-propyl-6,7-dihydrobenzo[a]quinolizine-3-carboxylic acid]	49
COc1cc2c(cc1OC)-c1cc(=O)c(C(=O)O)cn1C(C1CC1)C2 (stereo not shown) [Example 97, 6-cyclopropyl-9,10-dimethoxy-2-oxo-6,7-dihydrobenzo[a]quinolizine-3-carboxylic acid]	70
COCCOc1cc2c(cc1F)-c1cc(=O)c(C(=O)O)cn1C(C(C)C)C2 (stereo not shown) [Example 110, 10-fluoro-6-isopropyl-9-(2-methoxyethoxy)-2-oxo-6,7-dihydrobenzo[a]quinolizine-3-carboxylic acid]	52
COCCOc1cc(Cl)c2c(c1)CC(C(C)C)n1cc(C(=O)O)c(=O)cc1-2 (stereo not shown) [Example 111, 11-chloro-6-isopropyl-9-(2-methoxyethoxy)-2-oxo-6,7-dihydrobenzo[a]quinolizine-3-carboxylic acid]	40
CCC1Cc2cc(C)c(C)cc2-c2cc(=O)c(C(=O)O)cn21 (stereo not shown) [Example 112, 6-ethyl-9,10-dimethyl-2-oxo-6,7-dihydrobenzo[a]quinolizine-3-carboxylic acid]	140
CCC1Cc2c(ccc(C)c2C)-c2cc(=O)c(C(=O)O)cn21 (stereo not shown) [Example 113, 6-ethyl-8,9-dimethyl-2-oxo-6,7-dihydrobenzo[a]quinolizine-3-carboxylic acid]	640
COc1cc2c(cc1OC)-c1cc(=O)c(C(=O)O)cn1C(C(F)(F)F)C2 (stereo not shown) [Example 114, 9,10-dimethoxy-2-oxo-6-(trifluoromethyl)-6,7-dihydrobenzo[a]quinolizine-3-carboxylic acid]	150
COCCCOc1cc2c(cc1F)-c1cc(=O)c(C(=O)O)cn1C(C(C)C)C2 (stereo not shown) [Example 140, 10-fluoro-6-isopropyl-9-(3-methoxypropoxy)-2-oxo-6,7-dihydrobenzo[a]quinolizine-3-carboxylic acid]	31
COc1cc2c(cc1OCC(F)(F)CO)CC(C(C)(C)C)n1cc(C(=O)O)c(=O)cc1-2 (stereo not shown) [Example 141, 6-tert-butyl-9-(2,2-difluoro-3-hydroxy-propoxy)-10-methoxy-2-oxo-6,7-dihydrobenzo[a]quinolizine-3-carboxylic acid]	7
